Measured values reported in patent US10597388B2, “Pyridazinone herbicides” (FMC CORPORATION, priority 2014, dated 2020).

What was measured:
Type in all cases: in vivo
kochia (Kochia scoparia) = assay: Test C greenhouse herbicide test, postemergence
In short: (§1)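 Plants grown in potting mix of peat moss, vermiculite, wetting agent and starter nutrients were sprayed postemergence at 2 to 18 cm height (1- to 4-leaf stage). After 13 to 15 d in the greenhouse, injury was visually rated against untreated controls on a 0–100 scale (0 no effect, 100 complete control).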

[1] = system: oat, wild (wild oat, Avena fatua); assay: Test C greenhouse herbicide test, postemergence
In short: as §1

soybean (Glycine max) = assay: Test C greenhouse herbicide test, pre- and postemergence
In short: (§2)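 Greenhouse pots; pre-em on seeded loam:sand blend, post-em on 2–18 cm plants (1–4 leaf) in sphagnum peat/vermiculite medium. Formulation: non-phytotoxic solvent + surfactant. Read-out: visual % control (0–100) vs controls at 13–15 d.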

[2] = system: blackgrass (Alopecurus myosuroides); assay: as above
In short: as §2

[3] = system: barnyardgrass (Echinochloa crus-galli); assay: as above
In short: as §2

[4] = system: johnsongrass (Sorghum halepense); assay: as above
In short: as §2

[5] = system: ragweed (common ragweed, Ambrosia elatior); assay: as above
In short: as §2

[6] = system: waterhemp (common waterhemp, Amaranthus rudis); assay: as above
In short: as §2

[7] = system: oilseed rape (Brassica napus); assay: as above
In short: as §2

[8] = system: foxtail, giant (giant foxtail, Setaria faberii); assay: as above
In short: as §2

[9] = system: galium (catchweed bedstraw, Galium aparine); assay: as above
In short: as §2

[10] = system: morningglory (Ipomoea coccinea); assay: as above
In short: as §2

[11] = system: velvetleaf (Abutilon theophrasti); assay: as above
In short: as §2

[12] = system: wheat (winter wheat, Triticum aestivum); assay: as above
In short: as §2

[13] = system: pigweed (Amaranthus retroflexus); assay: as above
In short: as §2

corn (Zea mays) = assay: as above
In short: as §2

[14] = system: crabgrass, large (large crabgrass, Digitaria sanguinalis); assay: as above
In short: as §2

[15] = Postemergence, 31 g ai/ha, 0 to 100 scale (0 no effect, 100 complete control)
[16] = Postemergence, 125 g ai/ha, scale 0 to 100, 0 is no effect, 100 is complete control
[17] = Postemergence, 250 g ai/ha, scale 0 to 100, 0 no effect, 100 complete control, 13 to 15 d
[18] = postemergence, 62 g ai/ha, scale 0 to 100, 0 no effect, 100 complete control

Cc1ccc2ccccc2c1-c1c(O)cnn(C)c1=O [Compound 56]
Kochia plant response rating (kochia (Kochia scoparia); [15]): 70
Plant response rating, Kochia (kochia (Kochia scoparia); [16]): 90
Plant response rating, Kochia (kochia (Kochia scoparia); [17]): 100
Kochia plant response rating (kochia (Kochia scoparia); [18]): 90
Oat, Wild plant response rating [1, 15]: 5
Plant response rating, Oat, Wild [1, 16]: 20
Plant response rating, Oat, Wild [1, 17]: 40
Oat, Wild plant response rating [1, 18]: 10
Soybean plant response rating (soybean (Glycine max); [15]): 0
Plant response rating, Soybean (soybean (Glycine max); [16]): 0
Plant response rating, Soybean (soybean (Glycine max); [17]): 0
Soybean plant response rating (soybean (Glycine max); [18]): 0
Blackgrass plant response rating [2, 15]: 0
Plant response rating, Blackgrass [2, 16]: 5
Plant response rating, Blackgrass [2, 17]: 40
Blackgrass plant response rating [2, 18]: 5
Barnyardgrass plant response rating [3, 15]: 0
Plant response rating, Barnyardgrass [3, 16]: 5
Plant response rating, Barnyardgrass [3, 17]: 10
Barnyardgrass plant response rating [3, 18]: 5
Johnsongrass plant response rating [4, 15]: 0
Plant response rating, Johnsongrass [4, 16]: 5
Plant response rating, Johnsongrass [4, 17]: 10
Johnsongrass plant response rating [4, 18]: 0
Ragweed plant response rating [5, 15]: 0
Plant response rating, Ragweed [5, 16]: 60
Plant response rating, Ragweed [5, 17]: 60
Ragweed plant response rating [5, 18]: 0
Waterhemp plant response rating [6, 15]: 55
Plant response rating, Waterhemp [6, 16]: 95
Plant response rating, Waterhemp [6, 17]: 90
Waterhemp plant response rating [6, 18]: 75
Oilseed Rape plant response rating [7, 15]: 0
Plant response rating, Oilseed Rape [7, 16]: 0
Plant response rating, Oilseed Rape [7, 17]: 0
Oilseed Rape plant response rating [7, 18]: 0
Foxtail, Giant plant response rating [8, 15]: 0
Plant response rating, Foxtail, Giant [8, 16]: 0
Plant response rating, Foxtail, Giant [8, 17]: 50
Foxtail, Giant plant response rating [8, 18]: 0
Galium plant response rating [9, 15]: 80
Plant response rating, Galium [9, 16]: 90
Plant response rating, Galium [9, 17]: 90
Galium plant response rating [9, 18]: 85
Morningglory plant response rating [10, 15]: 35
Plant response rating, Morningglory [10, 16]: 50
Plant response rating, Morningglory [10, 17]: 50
Morningglory plant response rating [10, 18]: 50
Velvetleaf plant response rating [11, 15]: 0
Plant response rating, Velvetleaf [11, 16]: 15
Plant response rating, Velvetleaf [11, 17]: 70
Velvetleaf plant response rating [11, 18]: 0
Wheat plant response rating [12, 15]: 0
Plant response rating, Wheat [12, 16]: 5
Plant response rating, Wheat [12, 17]: 5
Wheat plant response rating [12, 18]: 0
Pigweed plant response rating [13, 15]: 80
Plant response rating, Pigweed [13, 16]: 85
Plant response rating, Pigweed [13, 17]: 90
Pigweed plant response rating [13, 18]: 75
Corn plant response rating (corn (Zea mays); [15]): 0
Plant response rating, Corn (corn (Zea mays); [16]): 0
Plant response rating, Corn (corn (Zea mays); [17]): 0
Corn plant response rating (corn (Zea mays); [18]): 0
Crabgrass, Large plant response rating [14, 15]: 0
Plant response rating, Crabgrass, Large [14, 16]: 5
Plant response rating, Crabgrass, Large [14, 17]: 20
Crabgrass, Large plant response rating [14, 18]: 5
